Results taken from patent US10722520B2, “Heterocyclic compounds and their use in preventing or treating bacterial infections” (MUTABILIS, priority 2016, dated 2020).
Counter-ions that a name gives are not always drawn. Like-named read-outs stand apart in the source and are kept apart here.

What was measured:
E. cloacae P99 = experiment: MIC of compound alone, broth microdilution; type: cell-based; conditions: Enterobacter cloacae; strain P99; compound alone; read-out: MIC compounds of the invention alone
Description: (§1) Log phase bacterial suspensions were adjusted to a final density of 5×10^5 cfu/mL in cation-adjusted Mueller-Hinton broth (Becton-Dickinson) and added to each well (98 μL). Microplates were incubated for 16-20 h at 35° C. in ambient air. The MIC of the compounds was defined as the lowest concentration of said compounds that prevented bacterial growth as read by visual inspection.

E. coli 190317 = experiment: MIC of compound alone, broth microdilution; type: cell-based; conditions: Escherichia coli; strain 190317; compound alone; read-out: MIC compounds of the invention alone
Description: as §1

K. pneumoniae 6299 = experiment: MIC of compound alone, broth microdilution; type: cell-based; conditions: Klebsiella pneumoniae; strain 6299; compound alone; read-out: MIC compounds of the invention alone
Description: as §1

K. pneumoniae BAA-1898 = experiment: MIC of compound alone, broth microdilution; type: cell-based; conditions: Klebsiella pneumoniae, BAA1898; strain BAA-1898; compound alone; read-out: MIC compounds of the invention alone
Description: as §1

P. aeruginosa CIP107051 = experiment: MIC of compound alone, broth microdilution; type: cell-based; conditions: Pseudomonas aeruginosa; strain CIP107051; compound alone; read-out: MIC compounds of the invention alone
Description: as §1

CMY-37 = CMY-37 (Citrobacter freundii, UniProt P05193); conditions: read-out: IC50 β-lactamase CMY-37
AmpC (P99) = AmpC (P99) (Enterobacter cloacae, UniProt P05364); experiment: biochemical
AmpC (PAE) = AmpC (PAE) (Pseudomonas aeruginosa, UniProt P24735); experiment: biochemical
OXA-15 = OXA-15 (Pseudomonas aeruginosa, UniProt Q51574); experiment: biochemical
TEM-1 = TEM-1 (Escherichia coli, UniProt P62593)
SHV-1 = SHV-1 (Klebsiella pneumoniae, UniProt P0AD64)
CTX-M-15 = CTX-M-15 (Escherichia coli, UniProt Q9EXV5)
KPC-2 = KPC-2 (Klebsiella pneumoniae, UniProt Q9F663)
OXA-1 = OXA-1 (Escherichia coli, UniProt P13661)
OXA-11 = OXA-11 (Pseudomonas aeruginosa, UniProt Q06778)
OXA-48 = OXA-48 (Klebsiella pneumoniae, UniProt Q6XEC0)
[1] = class (C), nitrocefin 200 μM, 30-min pre-incubation, enzyme 0.2 nM

SMILES | MIC (E. cloacae P99) [µg/mL] | MIC (E. coli 190317) [µg/mL] | MIC (K. pneumoniae 6299) [µg/mL] | MIC (K. pneumoniae BAA-1898) [µg/mL] | MIC (P. aeruginosa CIP107051) [µg/mL] | IC50 (CMY-37) [nM] | IC50 (AmpC (P99)) [nM] | IC50 (AmpC (PAE)) [nM] | IC50 (OXA-15) [nM] | IC50 (TEM-1) [nM] | IC50 (SHV-1) [nM] | IC50 (CTX-M-15) [nM] | IC50 (KPC-2) [nM] | IC50 (OXA-1) [nM] | IC50 (OXA-11) [nM] | IC50 (OXA-48) [nM] | IC50 (CMY-37; [1]) [nM]
O=C(Nc1ncco1)c1ccn(C2=CC3CN(C2)C(=O)N3OS(=O)(=O)[O-])n1.[Na+] (stereo not drawn) [Example 37, sodium [7-oxo-3-[3-(oxazol-2-ylcarbamoyl)pyrazol-1-yl]-1,6-diazabicyclo[3.2.1]oct-3-en-6-yl]sulfate] | > 32 | 8 | > 32 | > 32 | > 32 | 15 | 9.7 | 200 | 32 | 0.5 | 3.2 | 0.46 | 2.9 | 73 | 21 | 2.5 | –
NC(=O)Cc1ccn(C2=CC3CN(C2)C(=O)N3OS(=O)(=O)[O-])n1.[Na+] (stereo not drawn) [Example 45, sodium [3-[3-(2-amino-2-oxo-ethyl)pyrazol-1-yl]-7-oxo-1,6-diazabicyclo[3.2.1]oct-3-en-6-yl]sulfate] | 16 | 4 | > 32 | 32 | > 32 | 19 | 32 | 66 | 310 | 1.4 | 4.5 | 1.3 | 47 | 300 | 92 | 18 | –
O=C1N2CC(n3cc(CO)cn3)=CC(C2)N1OS(=O)(=O)[O-].[Na+] (stereo not drawn) [Example 71, sodium [3-[4-(hydroxymethyl)pyrazol-1-yl]-7-oxo-1,6-diazabicyclo[3.2.1]oct-3-en-6-yl]sulfate] | 16 | 4 | 32 | 16 | > 32 | 10 | 19 | 47 | 55 | 1.4 | 9.6 | 0.78 | 42 | 450 | 260 | 12 | –
O=C(N[C@@H]1CCNC1)c1ccn(C2=CC3CN(C2)C(=O)N3OS(=O)(=O)O)n1 (stereo partly drawn) [Example 83, [7-oxo-3-[3-[[(3R)-pyrrolidin-3-yl]carbamoyl]pyrazol-1-yl]-1,6-diazabicyclo[3.2.1]oct-3-en-6-yl]hydrogen sulfate] | 8 | 2 | 32 | 8 | > 32 | – | 24 | 230 | 32 | 0.27 | 3.8 | 0.64 | 7.9 | 37 | 24 | 3.2 | 63
O=C(N[C@H]1CCNC1)c1ccn(C2=CC3CN(C2)C(=O)N3OS(=O)(=O)O)n1 (stereo partly drawn) [Example 82, [7-oxo-3-[3-[[(3S)-pyrrolidin-3-yl]carbamoyl]pyrazol-1-yl]-1,6-diazabicyclo[3.2.1]oct-3-en-6-yl]hydrogen sulfate] | 4 | 2 | 32 | 32 | > 32 | – | 32 | 270 | 47 | 0.58 | 4.9 | 0.89 | 10 | 110 | 22 | 3.2 | 61
O=C(NC1CCNCC1)c1ccn(C2=CC3CN(C2)C(=O)N3OS(=O)(=O)O)n1 (stereo not drawn) [Example 32, (7-oxo-3-[3-(4-piperidylcarbamoyl)pyrazol-1-yl]-1,6-diazabicyclo[3.2.1]oct-3-en-6-yl) hydrogen sulfate] | 16 | 8 | 32 | 16 | > 32 | – | 29 | 210 | 39 | 1.1 | 8.2 | 1 | 6.9 | 79 | 27 | 1.5 | 59
CNCc1cn(C2=CC3CN(C2)C(=O)N3OS(=O)(=O)O)nn1 (stereo not drawn) [Example 60, [3-[4-(methylaminomethyl)triazol-1-yl]-7-oxo-1,6-diazabicyclo[3.2.1]oct-3-en-6-yl]hydrogen sulfate] | 1 | 0.5 | > 32 | > 32 | 32 | – | 27 | 330 | 8.1 | 0.35 | 2 | 0.73 | 14 | 130 | 130 | 1.2 | 68
NC(=O)c1ccn(C2=CC3CN(C2)C(=O)N3OS(=O)(=O)[O-])n1.[Na+] (stereo not drawn) [Example 19, sodium [3-(3-carbamoylpyrazol-1-yl)-7-oxo-1,6-diazabicyclo[3.2.1]oct-3-en-6-yl]sulfate] | 8 | 4 | 16 | 16 | > 32 | 41 | 19 | 170 | 61 | 0.38 | 1.8 | 0.9 | 6.2 | 110 | 27 | 5.2 | –
O=C1N2CC(n3ccnc3CO)=CC(C2)N1OS(=O)(=O)[O-].[Na+] (stereo not drawn) [Example 70, sodium [3-[2-(hydroxymethyl)imidazol-1-yl]-7-oxo-1,6-diazabicyclo[3.2.1]oct-3-en-6-yl]sulfate] | > 32 | 32 | > 32 | 32 | > 32 | 120 | 94 | 600 | 30 | 0.63 | 2.3 | 3.5 | 51 | 92 | 170 | 6.2 | –
O=C1N2CC(n3nccc3CCO)=CC(C2)N1OS(=O)(=O)[O-].[Na+] (stereo not drawn) [Example 68, sodium [3-[5-(2-hydroxyethyl)pyrazol-1-yl]-7-oxo-1,6-diazabicyclo[3.2.1]oct-3-en-6-yl]sulfate] | > 32 | > 32 | > 32 | > 32 | > 32 | 130 | 170 | 430 | 4100 | 0.73 | 2.8 | 7.1 | 300 | 1200 | 3900 | 49 | –
Nc1ncc(C(=O)Nc2ccn(C3=CC4CN(C3)C(=O)N4OS(=O)(=O)[O-])n2)s1.[Na+] (stereo not drawn) [Example 13, sodium [3-[3-[(2-aminothiazole-5-carbonyl)amino]pyrazol-1-yl]-7-oxo-1,6-diazabicyclo[3.2.1]oct-3-en-6-yl]sulfate] | > 32 | 32 | > 32 | > 32 | > 32 | 1.1 | 2.6 | 8.7 | 11 | 0.65 | 3.2 | 0.62 | 2.5 | 27 | 4 | 1.9 | –
CC(=NOCCN)c1ccn(C2=CC3CN(C2)C(=O)N3OS(=O)(=O)O)n1 (mixture of isomers) [Example 29, (7-oxo-3-(3-[(Z,E)-N-(2-aminoethoxy)-C-methyl-carbonimidoyl]-pyrazol-1-yl)-1,6-diazabicyclo[3.2.1]oct-3-en-6-yl) hydrogen sulfate] | 32 | 8 | > 32 | 32 | > 32 | – | 25 | 190 | 51 | 0.21 | 1.1 | 0.55 | 8.7 | 150 | 31 | 3 | 35
